Where “and” joins values, the source holds several entries; their conditions need not be identical. Equal values may be shown once. Read-outs that look alike come from different tables or passages of the source. Where only a bound is given, the exact number is not on record here.

For one test, the system named is K101R/E138D/K103N HIV-1. As to the kind of experiment: HIV-1 drug susceptibility assay, K101R/E138D/K103N virus. In kind it is cell-based. As to conditions: for EC50: Human immunodeficiency virus 1, head: P4/R5 cells, footnote: TZM-bl cells, mean ± SD, read-out: EC50, inhibition of HIV-1 replication. The procedure: (§1) The genes for K103N, E138D/K101R and K101R/K103N/E138D RT were cloned into HIV-1LAI ([11]). NNRTI susceptibility was determined in TZM-bl cells as described previously ([21]).

Another test concerns K101R/E138D HIV-1. As to the kind of experiment: HIV-1 drug susceptibility assay, K101R/E138D virus. In kind it is cell-based. The note with it: for EC50: Human immunodeficiency virus 1, head: P4/R5 cells, footnote: TZM-bl cells, mean ± SD, read-out: EC50, inhibition of HIV-1 replication. The procedure: as §1
For a further test, the system named is WT HIV-1. As to the kind of experiment: HIV-1 drug susceptibility assay (inhibition of HIV-1 replication), WT virus. In kind it is cell-based. As to conditions: Human immunodeficiency virus 1, head: P4/R5 cells, footnote: TZM-bl cells, mean ± SD, at least three experiments. The procedure: as §1
A further test deals with K103N HIV-1. Kind of test: HIV-1 drug susceptibility assay, K103N virus. The class given is cell-based. The procedure:
as §1

The target of test [1] is WT RT–T/P complex (Human immunodeficiency virus type 1 group M subtype B, UniProt P04585, C625V/C867S/D837C/T726C). Details: species or system HIV-1. As to conditions: for Eapp (apparent FRET energy transfer, fingers-thumb): mean ± SD. The procedure: Single-molecule total internal reflection fluorescence (TIRF) microscopy was performed as described previously ([19]). For the PIFE assays, Cy3-labeled T/P molecules were surface-tethered to a polyethylene glycol (PEG) treated flow cell via a biotin:streptavidin:biotin-PEG linkage. The concentrations of T/P were typically 20 pM, which provided an optimal surface density of ∼100 molecules per field of view. […] For the FRET assays, unlabeled T/P was surface-tethered by introducing 2 μM T/P into the flow cell to allow formation of a surface-dense layer of T/P substrates. Labeled RT (40 pM) was then introduced into the flow cell and allowed to bind to the T/P. Unbound RT was removed by washing. The PIFE and FRET data were analyzed as described in Supplementary Materials and Methods.
All experiments were performed in 50 mM Tris-HCl, pH 7.5, 25 mM NaCl, and 5 mM MgCl2.
The buffer used in TIRF microscopy experiments also contained 0.1 mg/ml glucose oxidase, 0.02 mg/ml catalase, 0.4% wt/v β-d-glucose, and 2 mM Trolox. Unless otherwise indicated, the TTP, EFV and NVP concentrations were held at 50 μM, 500 nM and 1 μM, respectively, […]
Unlabeled T/P was surface tethered by introducing 2 µM T/P into the flow cell to allow formation of a surface-dense layer of T/P substrates, which promoted observation of RT-T/P complexes. 40 pM of labeled RT was then introduced into the flow cell and allowed to bind to the T/P. Unbound RT was removed by extensive washing. Low concentrations of RT followed by a wash step eliminated excess background noise and/or saturation of the EMCCD. Based on the relative distribution of donor and acceptor intensities observed in the TIRFM fields of view, […]
analyzed. Eapp was calculated using the equation: […]
where ID and IA denote background-corrected donor and acceptor intensities, respectively.
RT. Eapp histograms were subsequently constructed by collecting the pre-photobleach regions of all traces visibly resulting in donor and acceptor photobleaching, binned into 25 bins, and then fit with single Gaussian functions (see Supplementary Figure 3). Thumb/fingers distances reported in Supplementary Table 1 were derived from the fitted Eapp values using the Förster equation: […]
where r is the distance between the dipoles of Cy3 and Cy5, and Ro is the empirically calculated

The target of test [2] is T1, K103N RT–T/P complex (Human immunodeficiency virus type 1 group M subtype B, UniProt P04585, K690N).
T1 construct: asymmetric heterodimer composed of a 66-kDa (p66) subunit and a p66-derived 51-kDa (p51) subunit; made in house
In kind it is binding, HIV-1. The note with it: K103N vs WT RT–T/P complex. The procedure: (§2) Fluorescence anisotropy experiments were performed as previously described ([17],[18]). Assays were carried out using a fluorescein-labeled T/P substrate. The concentration of T/P in all experiments was 5 nM (in a 400-μl cuvette). Data were analyzed as described in the Supplementary Materials and Methods section.
(§3) -ddC-3’) was annealed to a 5’-biotinylated 35 nucleotide DNA […]
(§4) template (5’-biotin-[…]-3’). We also […]
(§5) performed PIFE experiments using a 21 nucleotide DNA primer (5’-Cy3- […]
(§6) -ddC-3’) annealed to the same template. For the single-pair FRET experiments, the same T/P was used, but it lacked 5’-Cy3. For the anisotropy […]
(§7) Fluorescence anisotropy experiments were performed as previously described (5, 6), using a Varian Cary Eclipse fluorescence spectrophotometer. […]
(§8) 5 and 10 nm respectively. […] Anisotropy (r) was calculated as: r= (IVV-G·IVH)/(IVV+2·G·IVH) (1) where IVV is the fluorescence intensity with vertically oriented excitation and emission polarizers and IVH is the fluorescence intensity with a vertically oriented excitation polarizer and a horizontally oriented emission polarizer. The G-factor, defined as G=IHV/IHH, was measured […]
(§9) For all theoretical calculations, r was calculated using the Perrin equation: r=ro/(1+τ/ θ)                 (2) where ro is the fundamental anisotropy, τ  the lifetime and θ  the rotational correlation time (7). […]
(§10) analyzed. […]

A further test concerns the target T2, K101R/E138D HIV-1 RT (Human immunodeficiency virus type 1 group M subtype B, UniProt P04585, E725D/K688R).
T2 construct: asymmetric heterodimer composed of a 66-kDa (p66) subunit and a p66-derived 51-kDa (p51) subunit; made in house
As to the kind of experiment: Inhibition of RT RNA-dependent DNA polymerase activity, K101R/E138D RT. The class given is biochemical. The procedure: (§11) The RNA- and DNA-dependent DNA polymerase activities of the purified and labeled RTs were assessed as described previously ([14]).

The target of test [3] is T3, WT RT–T/P complex (Human immunodeficiency virus type 1 group M subtype B, UniProt P04585).
T3 construct: asymmetric heterodimer composed of a 66-kDa (p66) subunit and a p66-derived 51-kDa (p51) subunit; made in house
As to the kind of experiment: biochemical. Also noted: species or system HIV-1. As to conditions: fluorescence anisotropy, 5 nM T/P, read-out: Kd, NNRTI binding to the RT–T/P complex. The procedure: as §2, §3, §4, §5, §6, §7, §8, §9, §10
A general note: Polarisation of emitted light reports the rotation of a fluorescent probe.

Another test has as its target T4, E138D HIV-1 RT (Human immunodeficiency virus type 1 group M subtype B, UniProt P04585, E725D).
T4 construct: asymmetric heterodimer composed of a 66-kDa (p66) subunit and a p66-derived 51-kDa (p51) subunit; made in house
Kind of test: Inhibition of RT RNA-dependent DNA polymerase activity, E138D RT. The class given is biochemical. The procedure: as §11

Another test has as its target T5, K101R HIV-1 RT (Human immunodeficiency virus type 1 group M subtype B, UniProt P04585, K688R).
T5 construct: asymmetric heterodimer composed of a 66-kDa (p66) subunit and a p66-derived 51-kDa (p51) subunit; made in house
Kind of test: Inhibition of RT RNA-dependent DNA polymerase activity, K101R RT. The class given is biochemical. The procedure:
as §11

Another test has as its target T6, WT HIV-1 RT (Human immunodeficiency virus type 1 group M subtype B, UniProt P04585).
T6 construct: asymmetric heterodimer composed of a 66-kDa (p66) subunit and a p66-derived 51-kDa (p51) subunit; made in house
Kind of test: biochemical. The note with it: mean ± SD, at least four experiments, read-out: IC50, inhibition of RT RNA-dependent DNA polymerase activity. The procedure:
as §11

In test [4] the target is T1, K103N RT–T/P complex. Kind of test: dTTP binding to RT-T/P complex by fluorescence anisotropy, K103N. Also noted: species or system HIV-1. As to conditions: presence vs absence of EFV. The procedure:
as §2, §3, §4, §5
-ddC-3’) annealed to the same template. For the single-pair FRET experiments, the same T/P was used, but it lacked 5’-Cy3. For the anisotropy experiments we used a 19 nt DNA primer (5’-Fluorescein-dT-[…]- […]
Fluorescence anisotropy experiments were performed as previously described (5, 6), using a Varian Cary Eclipse fluorescence spectrophotometer. […] Anisotropy (r) was calculated as: r= (IVV-G·IVH)/(IVV+2·G·IVH) (1) where IVV is the fluorescence intensity with vertically oriented excitation and emission polarizers and IVH is the fluorescence intensity with a vertically oriented excitation polarizer and a horizontally oriented emission polarizer. The G-factor, defined as G=IHV/IHH, was measured before each experiment to ensure a value of ~ 1.65. […]
For fluorescein, empirically determined values of ro = […] and τ = 4.1 ns were used (8, 9). θ was calculated using the equation: […]
as §10

Where [5] appears, read: Human immunodeficiency virus 1, K103N virus, head: P4/R5 cells, footnote: TZM-bl cells, mean ± SD, read-out: EC50, inhibition of HIV-1 replication.

Broadly, the EC50 is the concentration that produces a half-maximal response. Regarding `O=C1Nc2ccc(Cl)cc2[C@@](C#CC2CC2)(C(F)(F)F)O1` [Efavirenz, efavirenz], the EC50 was 15.9 ± 2.4 nM with K101R/E138D/K103N HIV-1; 0.2 nM in the test on K101R/E138D HIV-1 (K101R/E138D virus); 1.3 ± 0.2 nM with WT HIV-1; 64 ± 18.7 nM in the test on K103N HIV-1 (Human immunodeficiency virus 1, read-out: EC50, inhibition of HIV-1 replication). For the same compound, the “Increase of susceptibility (as measured by IC50 and EC50) by the E138D/K101R mutation” value in the test with K101R/E138D HIV-1 (E138D/K101R vs WT) was “up to 7 fold”.

As for `Cc1ccnc2c1NC(=O)c1cccnc1N2C1CC1` [Nevirapine, nevirapine], the “Eapp (apparent FRET energy transfer, fingers-thumb)” value at WT RT–T/P complex [1] (WT RT-T/P plus NNRTI (EFV 500 nM, NVP 1 μM), centre of Gaussian fit, listed as NVP) is 0.68 ± 0.18 and 0.68; at WT RT–T/P complex [1] (WT RT-T/P-dNTP plus NNRTI) it was 0.72 ± 0.14. The “Average opening of the fingers and thumb” value on WT RT–T/P complex [1] (WT RT–T/P complex, NNRTI vs no inhibitor) stood at 2.0 Å. Further, the “Effect on fingers/thumb FRET of the ternary complex” value on WT RT–T/P complex [1] (WT RT–T/P–dNTP complex, NNRTI infused) is “did not affect the FRET histogram”. Also, the half-maximal effective concentration (EC50) in the test on K101R/E138D/K103N HIV-1 is above 200 nM; with K101R/E138D HIV-1 (K101R/E138D virus) it was 21.6 ± 16.8 nM; with WT HIV-1, 24.6 ± 5.9 nM; in the test on K103N HIV-1 (setting [5]) it was above 200 nM. For the same compound, the “Decrease of binding affinity by the K103N substitution” value on K103N RT–T/P complex [2] is given as around 10 fold.

Broadly, the IC50 is the point on the concentration scale where inhibition reaches its midpoint. Take `Cc1cc(/C=C/C#N)cc(C)c1Nc1ccnc(Nc2ccc(C#N)cc2)n1` [Rilpivirine, rilpivirine]: the “Fold-R (IC50 mutant/IC50 WT)” value at K101R/E138D HIV-1 RT was 0.5; on E138D HIV-1 RT, 0.4; on K101R HIV-1 RT, 0.7. The IC50 against K101R/E138D HIV-1 RT (mean ± SD) is 11.2 ± 0.8 nM; on E138D HIV-1 RT (mean ± SD) it was 8.3 ± 1.2 nM; against K101R HIV-1 RT (mean ± SD), 15.5 ± 7.6 nM; at WT HIV-1 RT, 22.5 ± 2.2 nM. Further, the results for the “Fold-R (EC50 mutant/EC50 WT)” value in the test on K101R/E138D/K103N HIV-1, in the test with K101R/E138D HIV-1 (K101R/E138D virus) and in the test on K103N HIV-1 (K103N virus) were 0.3, 0.2 and 1.1, respectively. Moreover, the EC50 was determined as 0.12 ± 0.03 nM in the test on K101R/E138D/K103N HIV-1, 0.06 ± 0.01 nM in the test on K101R/E138D HIV-1 (K101R/E138D virus), 0.37 ± 0.06 nM in the test with WT HIV-1 and 0.4 ± 0.1 nM in the test with K103N HIV-1 (setting [5]). Moreover, the Kd on WT RT–T/P complex [3] came out at 82.5 nM. Besides, the “Effect of the K103N substitution on NNRTI binding affinity” value at K103N RT–T/P complex [2] is on record as “did not decrease the binding affinity”.

`Cc1cn([C@H]2C[C@H](O)[C@@H](COP(=O)(O)OP(=O)(O)OP(=O)(O)O)O2)c(=O)[nH]c1=O` [dTTP]: at K103N RT–T/P complex [4], the “Increase of Kd for dTTP binding in the presence of inhibitor” value is 3 fold.
